This assay concerns the target HR1 region of HIV-1 gp41 (immobilized biotinylated HR1 peptide Biotin-T-2324) (Human immunodeficiency virus type 1 group M subtype B, UniProt P04582, G556A). Put plainly: BIAcore surface plasmon resonance analysis of the binding to the HR1 region. The following applies: SPR, BIAcore 3000, 25° C., HBS-P buffer, 1:1 Langmuir binding model. A general note: In SPR one partner is held on a chip, and binding of the other changes the refractive index at the surface.

The values that follow come from patent publication US20090143288A1, “Peptide-complement conjugates” (Roche Palo Alto LLC, priority 2007, published 2009).

The structures appear in SMILES notation.

`CC[C@H](C)[C@H](NC(=O)[C@H](CCC(N)=O)NC(=O)[C@H](C)NC(=O)[C@H](CCC(N)=O)NC(=O)[C@H](CCC(=O)O)NC(=O)[C@H](CC(C)C)NC(=O)[C@H](CC(C)C)NC(=O)[C@H](C)NC(=O)[C@@H](NC(=O)[C@@H](NC(=O)[C@H](CCCCN)NC(=O)[C@H](CCC(N)=O)NC(=O)[C@H](CCC(=O)O)NC(=O)[C@H](Cc1c[nH]c2ccccc12)NC(=O)[C@H](CCC(=O)O)NC(=O)[C@H](CCC(N)=O)NC(=O)[C@H](Cc1c[nH]c2ccccc12)NC(C)=O)[C@@H](C)CC)[C@@H](C)O)C(=O)N[C@@H](CCC(N)=O)C(=O)N[C@@H](CCC(N)=O)C(=O)N[C@@H](CCC(=O)O)C(=O)N[C@@H](CCCCN)C(=O)N[C@@H](CC(N)=O)C(=O)N[C@@H](CCC(=O)O)C(=O)N[C@@H](Cc1ccc(O)cc1)C(=O)N[C@@H](CCC(=O)O)C(=O)N[C@@H](CC(C)C)C(=O)N[C@@H](CCC(N)=O)C(=O)N[C@@H](CCCCN)C(=O)N[C@@H](CC(C)C)C(=O)N[C@@H](CC(=O)O)C(=O)N[C@@H](CCCCN)C(=O)N[C@@H](Cc1c[nH]c2ccccc12)C(=O)N[C@@H](C)C(=O)N[C@@H](CO)C(=O)N[C@@H](CC(C)C)C(=O)N[C@@H](Cc1c[nH]c2ccccc12)C(=O)N[C@@H](CCC(=O)O)C(=O)N[C@@H](Cc1c[nH]c2ccccc12)C(=O)N[C@@H](Cc1ccccc1)C(N)=O` [Rob T-1249, WQEWEQKITALLEQAQIQQEKNEYELQKLDKWASLWEWF]: the “ka (association rate constant)” value is 6.4 * 10^5 1/ms and the “kd (dissociation rate constant)” value is 0.000845 s⁻¹.
